What was measured:
[1] = The drug is tested on Collinsella aerofaciens strain: ATCC25986 for biotransformation. The drug concentrations were measured before and after a 12-h incubation by liquid-chromatography-coupled mass spectrometry (LC–MS); settings: 2 µM
[2] = The drug is tested on Bacteroides fragilis strain: HMW615 for biotransformation. The drug concentrations were measured before and after a 12-h incubation by liquid-chromatography-coupled mass spectrometry (LC–MS); settings: 2 µM
[3] = The drug is tested on Odoribacter splanchnicus strain: fecal isolate for biotransformation. The drug concentrations were measured before and after a 12-h incubation by liquid-chromatography-coupled mass spectrometry (LC–MS); settings: 2 µM
[4] = The drug is tested on Parabacteroides merdae strain: ATCC43184 for biotransformation. The drug concentrations were measured before and after a 12-h incubation by liquid-chromatography-coupled mass spectrometry (LC–MS); settings: 2 µM
[5] = The drug is tested on Anaerococcus hydrogenalis strain: DSM7454 for biotransformation. The drug concentrations were measured before and after a 12-h incubation by liquid-chromatography-coupled mass spectrometry (LC–MS); settings: 2 µM
[6] = The drug is tested on Clostridium asparagiforme strain: DSM15981 for biotransformation. The drug concentrations were measured before and after a 12-h incubation by liquid-chromatography-coupled mass spectrometry (LC–MS); format: ADME; set-up: dose 2 uM, timepoint 0 vs 12 hours; settings: enterocloster asparagiformis, 2 µM
[7] = The drug is tested on Clostridium sp. strain: fecal isolate for biotransformation. The drug concentrations were measured before and after a 12-h incubation by liquid-chromatography-coupled mass spectrometry (LC–MS); settings: 2 µM
[8] = The drug is tested on Clostridium scindens strain: ATCC35704 for biotransformation. The drug concentrations were measured before and after a 12-h incubation by liquid-chromatography-coupled mass spectrometry (LC–MS); settings: 2 µM
[9] = The drug is tested on Coprococcus comes strain: ATCC27758 for biotransformation. The drug concentrations were measured before and after a 12-h incubation by liquid-chromatography-coupled mass spectrometry (LC–MS); format: ADME; set-up: dose 2 uM, timepoint 0 vs 12 hours; settings: 2 µM
[10] = The drug is tested on Enterococcus faecalis strain: V583 for biotransformation. The drug concentrations were measured before and after a 12-h incubation by liquid-chromatography-coupled mass spectrometry (LC–MS); settings: 2 µM
[11] = The drug is tested on Eubacterium hallii strain: DSM3353 for biotransformation. The drug concentrations were measured before and after a 12-h incubation by liquid-chromatography-coupled mass spectrometry (LC–MS); settings: anaerobutyricum hallii, 2 µM
[12] = The drug is tested on Ruminococcus gnavus strain: ATCC29149 for biotransformation. The drug concentrations were measured before and after a 12-h incubation by liquid-chromatography-coupled mass spectrometry (LC–MS); settings: mediterraneibacter gnavus, 2 µM
[13] = The drug is tested on Enterobacter cancerogenus strain: ATCC35316 for biotransformation. The drug concentrations were measured before and after a 12-h incubation by liquid-chromatography-coupled mass spectrometry (LC–MS); settings: 2 µM
[14] = The drug is tested on Providencia stuartii strain: ATCC25827 for biotransformation. The drug concentrations were measured before and after a 12-h incubation by liquid-chromatography-coupled mass spectrometry (LC–MS); settings: 2 µM
[15] = bacteroides fragilis, 12 h, 2 µM
Description: The drug is tested on Bacteroides fragilis strain: NCTC 9343 for biotransformation. The drug concentrations were measured before and after a 12-h incubation by liquid-chromatography-coupled mass spectrometry (LC–MS)

[16] = parabacteroides distasonis, 12 h, 2 µM
Description: The drug is tested on Parabacteroides distasonis strain: ATCC8503 for biotransformation. The drug concentrations were measured before and after a 12-h incubation by liquid-chromatography-coupled mass spectrometry (LC–MS)

[17] = enterocloster bolteae, 12 h, 2 µM
Description: The drug is tested on Clostridium bolteae strain: ATCCBAA-613 for biotransformation. The drug concentrations were measured before and after a 12-h incubation by liquid-chromatography-coupled mass spectrometry (LC–MS)

[18] = limosilactobacillus reuteri cf48-3a, 12 h, 2 µM
Description: The drug is tested on Lactobacillus reuteri CF48-3A strain: BEI HM-102 for biotransformation. The drug concentrations were measured before and after a 12-h incubation by liquid-chromatography-coupled mass spectrometry (LC–MS)

[19] = The drug is tested on Clostridium sporogenes strain: ATCC15579 for biotransformation. The drug concentrations were measured before and after a 12-h incubation by liquid-chromatography-coupled mass spectrometry (LC–MS); settings: 2 µM
[20] = segatella copri, 12 h, 2 µM
Description: The drug is tested on Prevotella copri strain: DSM18205 for biotransformation. The drug concentrations were measured before and after a 12-h incubation by liquid-chromatography-coupled mass spectrometry (LC–MS)

Structure (SMILES): CC(=O)CC(c1ccccc1)c1c(O)c2ccccc2oc1=O (centres undefined) [WARFARIN]
- Bacterial Biotransformation [1]: Compound NOT metabolized
- Bacterial Biotransformation [2]: Compound metabolized
- Bacterial Biotransformation [3]: Compound NOT metabolized
- Bacterial Biotransformation [4]: Compound NOT metabolized
- Bacterial Biotransformation [5]: Compound NOT metabolized
- Bacterial Biotransformation [6]: Compound NOT metabolized
- Bacterial Biotransformation [7]: Compound NOT metabolized
- Bacterial Biotransformation [8]: Compound NOT metabolized
- Bacterial Biotransformation [9]: Compound NOT metabolized
- Bacterial Biotransformation [10]: Compound NOT metabolized
- Bacterial Biotransformation [11]: Compound NOT metabolized
- Bacterial Biotransformation [12]: Compound NOT metabolized
- Bacterial Biotransformation [13]: Compound NOT metabolized
- Bacterial Biotransformation [14]: Compound NOT metabolized
- Bacterial Biotransformation [15]: Compound NOT metabolized
- Bacterial Biotransformation [16]: Compound NOT metabolized
- Bacterial Biotransformation [17]: Compound NOT metabolized
- Bacterial Biotransformation [18]: Compound NOT metabolized

Structure (SMILES): Nc1c2c(nc3ccccc13)CCCC2 [TACRINE]
- Bacterial Biotransformation [1]: Compound NOT metabolized
- Bacterial Biotransformation [2]: Compound NOT metabolized
- Bacterial Biotransformation [5]: Compound NOT metabolized
- Bacterial Biotransformation [6]: Compound NOT metabolized
- Bacterial Biotransformation [7]: Compound NOT metabolized
- Bacterial Biotransformation [8]: Compound NOT metabolized
- Bacterial Biotransformation [19]: Compound NOT metabolized
- Bacterial Biotransformation [9]: Compound NOT metabolized
- Bacterial Biotransformation [10]: Compound NOT metabolized
- Bacterial Biotransformation [11]: Compound NOT metabolized
- Bacterial Biotransformation [12]: Compound NOT metabolized
- Bacterial Biotransformation [13]: Compound NOT metabolized
- Bacterial Biotransformation [14]: Compound NOT metabolized
- Bacterial Biotransformation [16]: Compound NOT metabolized
- Bacterial Biotransformation [20]: Compound NOT metabolized
- Bacterial Biotransformation [17]: Compound NOT metabolized
- Bacterial Biotransformation [18]: Compound NOT metabolized

Structure (SMILES): CN1[C@@H]2CC[C@H]1C[C@@H](OC(=O)c1c[nH]c3ccccc13)C2 [TROPISETRON]
- Bacterial Biotransformation [1]: Compound NOT metabolized
- Bacterial Biotransformation [2]: Compound NOT metabolized
- Bacterial Biotransformation [3]: Compound NOT metabolized
- Bacterial Biotransformation [4]: Compound NOT metabolized
- Bacterial Biotransformation [5]: Compound NOT metabolized
- Bacterial Biotransformation [6]: Compound NOT metabolized
- Bacterial Biotransformation [7]: Compound NOT metabolized
- Bacterial Biotransformation [8]: Compound NOT metabolized
- Bacterial Biotransformation [9]: Compound NOT metabolized
- Bacterial Biotransformation [11]: Compound NOT metabolized
- Bacterial Biotransformation [12]: Compound NOT metabolized
- Bacterial Biotransformation [13]: Compound NOT metabolized
- Bacterial Biotransformation [14]: Compound NOT metabolized
- Bacterial Biotransformation [15]: Compound NOT metabolized
- Bacterial Biotransformation [16]: Compound NOT metabolized
- Bacterial Biotransformation [20]: Compound NOT metabolized
- Bacterial Biotransformation [17]: Compound NOT metabolized
- Bacterial Biotransformation [18]: Compound NOT metabolized

Structure (SMILES): CC(C)c1nc(N(C)S(C)(=O)=O)nc(-c2ccc(F)cc2)c1/C=C/[C@@H](O)C[C@@H](O)CC(=O)[O-].CC(C)c1nc(N(C)S(C)(=O)=O)nc(-c2ccc(F)cc2)c1/C=C/[C@@H](O)C[C@@H](O)CC(=O)[O-].[Ca+2] [ROSUVASTATIN CALCIUM]
- Bacterial Biotransformation [1]: Compound NOT metabolized
- Bacterial Biotransformation [2]: Compound NOT metabolized
- Bacterial Biotransformation [5]: Compound NOT metabolized
- Bacterial Biotransformation [6]: Compound NOT metabolized
- Bacterial Biotransformation [7]: Compound NOT metabolized
- Bacterial Biotransformation [8]: Compound NOT metabolized
- Bacterial Biotransformation [19]: Compound NOT metabolized
- Bacterial Biotransformation [9]: Compound NOT metabolized
- Bacterial Biotransformation [10]: Compound NOT metabolized
- Bacterial Biotransformation [11]: Compound NOT metabolized
- Bacterial Biotransformation [12]: Compound NOT metabolized
- Bacterial Biotransformation [13]: Compound NOT metabolized
- Bacterial Biotransformation [14]: Compound NOT metabolized
- Bacterial Biotransformation [15]: Compound NOT metabolized
- Bacterial Biotransformation [16]: Compound NOT metabolized
- Bacterial Biotransformation [17]: Compound NOT metabolized
- Bacterial Biotransformation [18]: Compound NOT metabolized

Structure (SMILES): CCOc1ccccc1OCCN[C@H](C)Cc1ccc(OC)c(S(N)(=O)=O)c1.Cl [TAMSULOSIN HYDROCHLORIDE]
- Bacterial Biotransformation [1]: Compound NOT metabolized
- Bacterial Biotransformation [2]: Compound NOT metabolized
- Bacterial Biotransformation [3]: Compound NOT metabolized
- Bacterial Biotransformation [4]: Compound NOT metabolized
- Bacterial Biotransformation [5]: Compound NOT metabolized
- Bacterial Biotransformation [6]: Compound NOT metabolized
- Bacterial Biotransformation [7]: Compound NOT metabolized
- Bacterial Biotransformation [8]: Compound NOT metabolized
- Bacterial Biotransformation [9]: Compound NOT metabolized
- Bacterial Biotransformation [10]: Compound NOT metabolized
- Bacterial Biotransformation [11]: Compound NOT metabolized
- Bacterial Biotransformation [12]: Compound NOT metabolized
- Bacterial Biotransformation [13]: Compound NOT metabolized
- Bacterial Biotransformation [14]: Compound NOT metabolized
- Bacterial Biotransformation [15]: Compound NOT metabolized
- Bacterial Biotransformation [16]: Compound NOT metabolized
- Bacterial Biotransformation [20]: Compound NOT metabolized
- Bacterial Biotransformation [17]: Compound NOT metabolized
- Bacterial Biotransformation [18]: Compound NOT metabolized

Structure (SMILES): O=C(NCc1ccccc1)OCCO [BURAMATE]
- Bacterial Biotransformation [1]: Compound NOT metabolized
- Bacterial Biotransformation [2]: Compound NOT metabolized
- Bacterial Biotransformation [3]: Compound NOT metabolized
- Bacterial Biotransformation [4]: Compound NOT metabolized
- Bacterial Biotransformation [6]: Compound NOT metabolized
- Bacterial Biotransformation [7]: Compound NOT metabolized
- Bacterial Biotransformation [8]: Compound NOT metabolized
- Bacterial Biotransformation [19]: Compound NOT metabolized
- Bacterial Biotransformation [9]: Compound NOT metabolized
- Bacterial Biotransformation [10]: Compound NOT metabolized
- Bacterial Biotransformation [11]: Compound NOT metabolized
- Bacterial Biotransformation [12]: Compound NOT metabolized
- Bacterial Biotransformation [13]: Compound NOT metabolized
- Bacterial Biotransformation [15]: Compound NOT metabolized
- Bacterial Biotransformation [16]: Compound NOT metabolized
- Bacterial Biotransformation [20]: Compound NOT metabolized
- Bacterial Biotransformation [17]: Compound NOT metabolized
- Bacterial Biotransformation [18]: Compound NOT metabolized

Structure (SMILES): Cc1ccc(-c2nc3ccc(C)cn3c2CC(=O)N(C)C)cc1 [ZOLPIDEM]
- Bacterial Biotransformation [1]: Compound NOT metabolized
- Bacterial Biotransformation [2]: Compound NOT metabolized
- Bacterial Biotransformation [3]: Compound NOT metabolized
- Bacterial Biotransformation [4]: Compound NOT metabolized
- Bacterial Biotransformation [5]: Compound NOT metabolized
- Bacterial Biotransformation [6]: Compound NOT metabolized
- Bacterial Biotransformation [7]: Compound NOT metabolized
- Bacterial Biotransformation [19]: Compound NOT metabolized
- Bacterial Biotransformation [9]: Compound NOT metabolized
- Bacterial Biotransformation [10]: Compound NOT metabolized
- Bacterial Biotransformation [11]: Compound NOT metabolized
- Bacterial Biotransformation [12]: Compound NOT metabolized
- Bacterial Biotransformation [13]: Compound NOT metabolized
- Bacterial Biotransformation [14]: Compound NOT metabolized
- Bacterial Biotransformation [15]: Compound NOT metabolized
- Bacterial Biotransformation [20]: Compound NOT metabolized
- Bacterial Biotransformation [17]: Compound NOT metabolized
- Bacterial Biotransformation [18]: Compound NOT metabolized

Structure (SMILES): COc1ccccc1OCC(O)CN1CCN(CC(=O)Nc2c(C)cccc2C)CC1 (centres undefined) [RANOLAZINE]
- Bacterial Biotransformation [1]: Compound NOT metabolized
- Bacterial Biotransformation [2]: Compound NOT metabolized
- Bacterial Biotransformation [3]: Compound NOT metabolized
- Bacterial Biotransformation [4]: Compound NOT metabolized
- Bacterial Biotransformation [5]: Compound NOT metabolized
- Bacterial Biotransformation [6]: Compound NOT metabolized
- Bacterial Biotransformation [7]: Compound NOT metabolized
- Bacterial Biotransformation [8]: Compound NOT metabolized
- Bacterial Biotransformation [9]: Compound NOT metabolized
- Bacterial Biotransformation [10]: Compound NOT metabolized
- Bacterial Biotransformation [11]: Compound NOT metabolized
- Bacterial Biotransformation [12]: Compound NOT metabolized
- Bacterial Biotransformation [13]: Compound NOT metabolized
- Bacterial Biotransformation [14]: Compound NOT metabolized
- Bacterial Biotransformation [15]: Compound NOT metabolized
- Bacterial Biotransformation [16]: Compound NOT metabolized
- Bacterial Biotransformation [20]: Compound NOT metabolized
- Bacterial Biotransformation [17]: Compound NOT metabolized
- Bacterial Biotransformation [18]: Compound NOT metabolized

Source: ChEMBL document CHEMBL5303573, “Mapping human microbiome drug metabolism by gut bacteria and their genes” (Nature, 2019)
